Assay results published in US20140243396A1, “METHOD OF TREATING MUCOEPIDERMOID CARCINOMA” (DANA-FARBER CANCER INSTITUTE, INC., priority 2011, published 2014).

Assays:
H292 and H3118 cells [1] = assay: Cell growth, cell count by trypan blue exclusion; type: cell-based
Procedure: (§1) FIG. 2 illustrates inhibition of PDE4B by pharmacological inhibitor rolipram plus forskolin prevents cell growth, causes cell cycle arrest and induces apoptosis in fusion positive MEC cells. Rolipram (R), forskolin (FK), Rolipram plus forskolin (R+FK) or DMSO. Columns: mean, bars: SD (n>3), *p<0.05, **p<0.01, ***p<0.001, compared to HSY cell growth. B. 1×10^5 cells were treated with 50 μM R plus 20 μM FK or DMSO for 24 hours. C. 1×10^5 cells were treated with 50 μM rolipram plus 20 μM forskolin with or DMSO for 48 hours. Apoptosis assay was performed by PI and Annexin-V staining and analyzed by flow cytometry. Columns: mean, bars: SD (n=3). *p<0.05, compared with DMSO treated cells.
FIG. 6 illustrates PI3-kinase signaling contributes to MEC cell growth. A. Effects of PI3-kinase inhibitor LY-294002 or Compound A on MEC cell growth. […] The same blot was stripped and probed with anti-AKT or anti-V.-actin antibody. Image was cropped and auto-leveled by Photoshop. A representative of three independent experiments. (Right) MEC cell growth was measured by MTS assay on day 5 of LY-294002 or Compound A treatment. Points: mean, bars: SD (n=3). B. Effects of knock-down of PI3-kinase α or β on MEC cell growth. […] H3118 cell lysates were prepared on day 5 post-transduction. Image was cropped and auto-leveled by Photoshop. (Lower) Effects of knock-down of PI3-kinase α or β on MEC cell growth. 1×10^5 cells were transduced twice with lenti-viruses harboring shRNAs targeting PI3-K α, β or scramble control. Cell numbers were counted by trypan blue exclusion on day 5 posttransduction. Cell growth of scramble control virus infected cells was set to 100%, Columns: mean, bars: SD (n=3). **p<0.01, ***p<0.001 compared to control cells. C. Effects of Compound A in combination of rolipram plus forskolin on of MEC cell growth. 1×10^5 cells were treated with the combination of inhibitors listed. Cell numbers were counted by trypan blue exclusion on day 5, Columns: mean, bars: SD (n=3).
(§2) The Methods were described previously (Chen et al. Genes Cancer, 1:822-835 (2010)). Cell growth: 1-2×10^5 cells were infected with lenti-virus harboring specific shRNAs. On day 5 post infection, cells were counted by trypan blue exclusion. MTS proliferation assay (Promega, Madison, Wis.): 1-2×10^3 cells were treated with LY-294002, Compound A or DMSO in the concentration as indicated in FIG. 6A. MTS activities were measured on day 5. Cell cycle analysis: 1×10^5 cells were treated with inhibitors or infected with viruses. DNA amount was measured by flow cytometry analysis (BD FACScans). Apoptosis assay: 1×10^5 cells were treated with inhibitors or infected with virus. Cell viability was measured using the Annexin-V-FLUOS Staining Kit (Roche Diagnostics, Indianapolis, Ind.) by flow cytometry analysis (BD FACScans).

H292 and H3118 cells [2] = assay: MTS proliferation assay; type: cell-based; conditions: Homo sapiens, NCI-H292, 120 h, MTS assay on day 5 of treatment, read-out: IC50, cell growth
Procedure: FIG. 6 illustrates PI3-kinase signaling contributes to MEC cell growth. A. Effects of PI3-kinase inhibitor LY-294002 or Compound A on MEC cell growth. […] The same blot was stripped and probed with anti-AKT or anti-V.-actin antibody. Image was cropped and auto-leveled by Photoshop. A representative of three independent experiments. (Right) MEC cell growth was measured by MTS assay on day 5 of LY-294002 or Compound A treatment. Points: mean, bars: SD (n=3). B. Effects of knock-down of PI3-kinase α or β on MEC cell growth. […] cell lysates were prepared on day 5 post-transduction. Image was cropped and auto-leveled by Photoshop. […] Cell numbers were counted by trypan blue exclusion on day 5 posttransduction. […] SD (n=3). **p<0.01, ***p<0.001 compared to control cells. C. […] Cell numbers were counted by trypan blue exclusion on day 5, Columns: mean, bars: SD (n=3). The Methods were described previously (Chen et al. […] On day 5 post infection, cells were counted by trypan blue exclusion. MTS proliferation assay (Promega, Madison, Wis.): 1-2×10^3 cells were treated with LY-294002, Compound A or DMSO in the concentration as indicated in FIG. 6A. MTS activities were measured on day 5. […] DNA amount was measured by flow cytometry analysis (BD FACScans). […] Cell viability was measured using the Annexin-V-FLUOS Staining Kit (Roche Diagnostics, Indianapolis, Ind.) by flow cytometry analysis (BD FACScans).

H3118 cells [3] = assay: Cell growth, cell count by trypan blue exclusion; type: cell-based; conditions: PDE4B knock-down, day 5 post-transduction, compared to scramble control
Procedure: (§3) FIG. 3 illustrates knock-down of PDE4B inhibits fusion positive MEC cell growth, causes cell cycle arrest and induces apoptosis. A. H3118 cell lysate was prepared on day 5 post-transduction and subjected to western blot analysis. Image was cropped and auto-leveled by Photoshop. A representative of three independent experiments. B. 1×10^5 MEC cells were infected twice by shRNA No. 1 and No. 2 and cell number was count on day 5 post-transduction by trypan blue exclusion. Columns: mean, bars: SD (n>3). *p<0.05, **p<0.01, compared with scramble control virus infected cell growth. C. 1×10^5 cells were infected twice by shRNA No. 2. Cell cycle was determined by PI staining followed by FACS analysis on day 5 post-transduction, n=3. D. 1×10^5 cells were infected twice by shRNA No. 2. Apoptosis assay was performed by PI and Annexin-V staining and analyzed by flow cytometry on day 5 post-transduction, Columns: mean, bars: SD (n=3). *p<0.05, compared with control cells.
as §2

H292 cells [4] = assay: Cell growth, cell count by trypan blue exclusion; type: cell-based; conditions: PDE4B knock-down, day 5 post-transduction, compared to scramble control
Procedure: as §3, §2

HSY cells [5] = assay: Cell growth, cell count by trypan blue exclusion; type: cell-based
Procedure: as §1, §3, §2

H3118 cells [6] = assay: In vivo murine xenograft model; design: species or system SCID hairless (SHO) mice
Text: FIG. 4 illustrates knock-down of PDE4B inhibited MEC cell growth in vivo. A. Tumor volume in SCID hairless mice. Points: mean of 5 tumors, bars: SD (n=5). ***p<0.001, compared to control tumor. B. Representative picture of the tumors dissected from the mice after sacrifice on day 30. Five pair (shPDE4B vs. scramble control) of tumors was shown (n=5). C. Tumor weight from SCID hairless mice. Tumors were weighted on day 30 at sacrifice. Columns: mean, bars: SD (n=5). ***p<0.001, compared to control tumor weight. D. RT-qPCR analysis of PDE4B expression from the tumor biopsies. Columns: mean, bars: SD (n=3). ***p<0.001, compared to control tumor.
Mice were maintained and treated in accordance with institutional guidelines of Dana Farber Cancer Institute Animal Resource Facilities. H3118 cells were infected twice with shPDE4B-2 or scramble control virus. On day three post-transduction, 5×10^6 shPDE4B cells were injected subcutaneously (s.c.) into one flank of a SCID hairless (SHO) mice (Charles River Laboratories International, Inc., Wilmington, Mass.) and 5×10^6 control cells were injected into the opposite flank (Dubrovska et al., Proc Natl Acad Sci USA, 2009, 106: 268-273; Serra et al. Cancer Res, 2008, 68: 8022-8030). A total of five mice were used. The tumor volume was measured every two days starting from day 10, volume=(length×width2)×(π/6). Mice were sacrificed on day 30. The tumors were excised and the weight was measured.

H3118 cells [7] = assay: Cell cycle analysis by flow cytometry; type: cell-based; conditions: PDE4B knock-down, day 5 post-transduction; scramble control 57%
Procedure: as §1, §3
(§4) The Methods were described previously (Chen et al. Genes Cancer, 1:822-835 (2010)). […] On day 5 post infection, cells were counted by trypan blue exclusion. […] MTS activities were measured on day 5. […] DNA amount was measured by flow cytometry analysis (BD FACScans). […] Cell viability was measured using the Annexin-V-FLUOS Staining Kit (Roche Diagnostics, Indianapolis, Ind.) by flow cytometry analysis (BD FACScans).

HSY cells [8] = assay: Cell cycle analysis by flow cytometry; type: cell-based; conditions: PDE4B knock-down
Procedure: as §1, §3, §4

H292 cells [9] = assay: Cell cycle analysis by flow cytometry; type: cell-based; conditions: PDE4B knock-down, day 5 post-transduction; scramble control 50%
Procedure: as §1, §3, §4

H292 and H3118 cells [10] = assay: Apoptosis assay, PI and Annexin-V staining; type: cell-based; conditions: PDE4B knock-down, day 5 post-transduction
Procedure: as §1
(§5) FIG. 3 illustrates knock-down of PDE4B inhibits fusion positive MEC cell growth, causes cell cycle arrest and induces apoptosis. […] Cell cycle was determined by PI staining followed by FACS analysis on day 5 post-transduction, n=3. […] Apoptosis assay was performed by PI and Annexin-V staining and analyzed by flow cytometry on day 5 post-transduction, Columns: mean, bars: SD (n=3). *p<0.05, compared with control cells.
(§6) The Methods were described previously (Chen et al. Genes Cancer, 1:822-835 (2010)). […] On day 5 post infection, cells were counted by trypan blue exclusion. […] MTS activities were measured on day 5. […] DNA amount was measured by flow cytometry analysis (BD FACScans). […]

HSY cells [11] = assay: Apoptosis assay, PI and Annexin-V staining; type: cell-based; conditions: PDE4B knock-down, day 5 post-transduction
Procedure: as §1, §5, §6

PDE4B = PDE4B expression in cells (qPCR); type: cell-based; conditions: vs shLUC
Procedure: FIG. 1 illustrates identification of CRTC1-MAML2 Target genes. […] RT-qPCR experiments were performed in triplicates. Columns: mean, bars: SD (n=3). *p<0.05, compared with expression from shLUC infected cells (Student t test). B Inhibition of CRTC1-MAML2 inhibited H3118 and H292 cell growth. Columns: mean, bars: SD (n=3). *p<0.05, **p<0.01, ***p<0.001, compared with shLUC. […] Columns: mean, bars: SD (n=3). […] Image was cropped and auto-leveled by Photoshop. A representative of three independent experiments.
Total RNA was isolated by the Trizol method (Invitrogen). qPCR was performed using ABI PRISM 7500 sequence detector (Applied Biosystems, Foster City, Calif.) by SYBR method (Applied Biosystems). The SYBR method uses SYBR Green I dye, which is a highly specific, double-stranded DNA binding dye, to detect PCR product as it accumulates during PCR cycles. All samples were amplified in triplicates. The relative change of transcript amount was normalized with the GAPDH mRNA expression levels (20).

H3118 cells [12] = assay: Microarray gene expression after CRTC1-MAML2 knock-down; type: cell-based
Procedure: H3118 or HSY cells were transduced twice with retro-virus harboring shLUC or sh#D. GFP-positive cells were sorted 48 hours post-transduction. Total RNA was extracted using Trizol reagents (Invitrogen) and purified by RNAeasy Mini Column (QIAGEN). Hybridization with Affymetrix U133A plus—2 microarray chips was performed and analyzed at Dana-Farber Cancer Institute Microarray Core. The d-Chip analysis software was used for the analysis; Li, C. and Wong, W. H. Proc. Natl. Acad. Sci. USA […]. Genes with three fold expression changes in H3118 cells were considered significant (n=3, p<=0.05).

[13] = retroviral shRNA, fusion-positive H292 and H3118 cells, compared to shLUC
[14] = retroviral shRNA, fusion-negative HSY cells, compared to shLUC

Cn1c(=O)n(-c2ccc(C(C)(C)C#N)cc2)c2c3cc(-c4cnc5ccccc5c4)ccc3ncc21 [Compound A, 2-methyl-2-[4-(3-methyl-2-oxo-8-quinolin-3-yl-2,3-dihydroimidazo[4,5-c]quinolin-1-yl)-phenyl]propionitrile]
effect on MEC cell growth when combined with rolipram and forskolin (H292 and H3118 cells [1]; MEC cells, cell count by trypan blue exclusion on day 5): additive effect | IC50 (H292 and H3118 cells [2]): 6 to 20 nM

O=c1cc(N2CCOCC2)oc2c(-c3ccccc3)cccc12 [LY-294002]
IC50 (H292 and H3118 cells [2]): 4000 to 10000 nM

COc1ccc(C2CNC(=O)C2)cc1OC1CCCC1 (stereo not shown) [rolipram, 4-(3-cyclopentyloxy-4-methoxyphenyl)pyrrolidin-2-one]
cell growth (in words) (H292 and H3118 cells [1]; inhibitor treatment, MEC cells): not changed

shRNA #1: shRNA lenti-viral construct targeting PDE4B, SEQ ID NO 1 (CCGGGCTTGAGTAAATCCTACAGTTCTCGAGAACTGTAGGATTTACTCAAGCTTTTTG)
growth inhibition (H3118 cells [3]): 83% | growth inhibition (H292 cells [4]): 74% | cell growth (in words) (HSY cells [5]; HSY cells, PDE4B knock-down): slight growth reduction

shRNA #2: shRNA lenti-viral construct targeting PDE4B, SEQ ID NO 2 (CCGGGCGCAGAGAGTCATTTCTCTACTCGAGTAGAGAAATGACTCTCTGCGCTTTTTG)
tumor growth in vivo (in words) (H3118 cells [6]; H3118 cells with PDE4B knock-down vs control cells, s.c., tumor volume every two days): significantly slower | repression of PDE4B expression in tumor biopsies (H3118 cells [6]; RT-qPCR, compared to controls): 71% | average tumor weight, less than controls (H3118 cells [6]; day 30 at sacrifice): 88% | cells arrested at G0/G1 phase (H3118 cells [7]): 79% | cell cycle arrest (in words) (HSY cells [8]): much less effect | cells arrested at G0/G1 phase (H292 cells [9]): 78% | growth inhibition (H3118 cells [3]): 83% | growth inhibition (H292 cells [4]): 74% | apoptosis (in words) (H292 and H3118 cells [10]): significant apoptosis | apoptosis (in words) (HSY cells [11]): no significant effect | cell growth (in words) (HSY cells [5]; HSY cells, PDE4B knock-down): slight growth reduction

shRNA #A: small hairpin RNA targeting the MAML2 moiety of CRTC1-MAML2, GTAATCAACCTAACACATA, SEQ ID NO 3
cell growth (in words) (H292 and H3118 cells [1]; [13]): significantly inhibited cell growth | PDE4B expression (in words) (PDE4B; H3118 and H292 cells): significantly inhibited PDE4B expression | PDE4B expression (in words) (PDE4B; fusion negative HSY cells): not | cell growth (in words) (HSY cells [5]; [14]): no significant effect

shRNA #D: small hairpin RNA targeting the MAML2 moiety of CRTC1-MAML2, GACAGAGCCTGGTAATGAT, SEQ ID NO 4
cell growth (in words) (H292 and H3118 cells [1]; [13]): significantly inhibited cell growth | PDE4B expression (in words) (PDE4B; H3118 and H292 cells): significantly inhibited PDE4B expression | PDE4B expression (in words) (PDE4B; fusion negative HSY cells): not | PDE4B expression, down-regulation (H3118 cells [12]; CRTC1-MAML2 depletion): 17 fold | HES2 expression, up-regulation (H3118 cells [12]; CRTC1-MAML2 knock-down vs luciferase knock-down): 7 fold | cell growth (in words) (HSY cells [5]; [14]): no significant effect
